Measurements published in patent US8802661B2, “C-28 amides of modified C-3 betulinic acid derivatives as HIV maturation inhibitors” (priority 2010, dated 2014).

Test system: recombinant NL4-3 virus (Renilla luciferase in nef, Gag P373S)
Experiment: HIV Cell Culture Assay (luciferase reporter virus in MT-2 cells)
Assay type: cell-based
Conditions: NL43
Summary of the method: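 Virus from 293T transfection, titered in MT-2 by luciferase. MT-2 (RPMI, 10% HI-FBS) infected ± inhibitor serial dilutions, 4-5 d. Readout: Dual Luciferase premix (lysis:reagent:Stop & Glo 2:1:1), immediate luminescence.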

SMILES	EC50
C=C(C)[C@@H]1CC[C@]2(C(=O)NCCCN(CC)CC(=O)O)CC[C@]3(C)[C@H](CC[C@@H]4[C@@]5(C)CC=C(c6ccc(C(=O)O)cc6)C(C)(C)[C@@H]5CC[C@]43C)[C@@H]12 [Example 102, 4-((1R,3aS,5aR,5bR,7aR,11aS,11bR,13aR,13bR)-3a-(3-((carboxymethyl)(ethyl)amino)propylcarbamoyl)-5a,5b,8,8,11a-pentamethyl-1-(prop-1-en-2-yl)-2,3,3a,4,5,5a,5b,6,7,7a,8,11,11a,11b,12,13,13a,13b-octadecahydro-1H-cyclopenta[a]chrysen-9-yl)benzoic acid]	10.5 nM

Same assay, conditions: NL43, read-out: EC50 Group

SMILES	EC50
C=C(C)[C@@H]1CC[C@]2(C(=O)NCCN3CCCCC3)CC[C@]3(C)[C@H](CC[C@@H]4[C@@]5(C)CC=C(c6ccc(C(=O)O)cc6)C(C)(C)[C@@H]5CC[C@]43C)[C@@H]12 [Example 33, 4-((1R,3aS,5aR,5bR,7aR,11aS,11bR,13aR,13bR)-5a,5b,8,8,11a-pentamethyl-3a-(2-(piperidin-1-yl)ethylcarbamoyl)-1-(prop-1-en-2-yl)-2,3,3a,4,5,5a,5b,6,7,7a,8,11,11a,11b,12,13,13a,13b-octadecahydro-1H-cyclopenta[a]chrysen-9-yl)benzoic acid]	< 100 nM
C=C(C)[C@@H]1CC[C@]2(C(=O)NCC3CCCN3CC)CC[C@]3(C)[C@H](CC[C@@H]4[C@@]5(C)CC=C(c6ccc(C(=O)O)cc6)C(C)(C)[C@@H]5CC[C@]43C)[C@@H]12 (stereo partly drawn) [Example 39, 4-((1R,3aS,5aR,5bR,7aR,11aS,11bR,13aR,13bR)-3a-((1-ethylpyrrolidin-2-yl)methylcarbamoyl)-5a,5b,8,8,11a-pentamethyl-1-(prop-1-en-2-yl)-2,3,3a,4,5,5a,5b,6,7,7a,8,11,11a,11b,12,13,13a,13b-octadecahydro-1H-cyclopenta[a]chrysen-9-yl)benzoic acid]	< 100 nM
C=C(C)[C@@H]1CC[C@]2(C(=O)NCCN(CC)CCCC(=O)O)CC[C@]3(C)[C@H](CC[C@@H]4[C@@]5(C)CC=C(c6ccc(C(=O)O)cc6)C(C)(C)[C@@H]5CC[C@]43C)[C@@H]12 [Example 103, 4-((1R,3aS,5aR,5bR,7aR,11aS,11bR,13aR,13bR)-3a-(2-((3-carboxypropyl)(ethyl)amino)ethylcarbamoyl)-5a,5b,8,8,11a-pentamethyl-1-(prop-1-en-2-yl)-2,3,3a,4,5,5a,5b,6,7,7a,8,11,11a,11b,12,13,13a,13b-octadecahydro-1H-cyclopenta[a]chrysen-9-yl)benzoic acid]	< 100 nM
C[C@H]1[C@H](C)CC[C@]2(C(=O)NCCN(C)C)CC[C@]3(C)C(=CC[C@@H]4[C@@]5(C)CC=C(c6ccc(C(=O)O)cc6)C(C)(C)[C@@H]5CC[C@]43C)[C@H]12 [Example A1, 4-((4aR,6aR,6bS,8aS,11R,12S,12aS,14aR,14bS)-8a-(2-(dimethylamino)ethylcarbamoyl)-4,4,6a,6b,11,12,14b-heptamethyl-1,4,4a,5,6,6a,6b,7,8,8a,9,10,11,12,12a,14,14a,14b-octadecahydropicen-3-yl)benzoic acid]	< 100 nM
C=C(C)[C@@H]1CC[C@]2(C(=O)NCCc3ccccn3)CC[C@]3(C)[C@H](CC[C@@H]4[C@@]5(C)CC=C(c6ccc(C(=O)OC)cc6)C(C)(C)[C@@H]5CC[C@]43C)[C@@H]12 [Example 20, methyl 4-((1R,3aS,5aR,5bR,7aR,11aS,11bR,13aR,13bR)-5a,5b,8,8,11a-pentamethyl-1-(prop-1-en-2-yl)-3a-(2-(pyridin-2-yl)ethylcarbamoyl)-2,3,3a,4,5,5a,5b,6,7,7a,8,11,11a,11b,12,13,13a,13b-octadecahydro-1H-cyclopenta[a]chrysen-9-yl)benzoate]	> 100 nM
C=C(C)[C@@H]1CC[C@]2(C(=O)NCC(N)=O)CC[C@]3(C)[C@H](CC[C@@H]4[C@@]5(C)CC=C(c6ccc(C(=O)O)cc6)C(C)(C)[C@@H]5CC[C@]43C)[C@@H]12 [Example 34, 4-((1R,3aS,5aR,5bR,7aR,11aS,11bR,13aR,13bR)-3a-(2-amino-2-oxoethylcarbamoyl)-5a,5b,8,8,11a-pentamethyl-1-(prop-1-en-2-yl)-2,3,3a,4,5,5a,5b,6,7,7a,8,11,11a,11b,12,13,13a,13b-octadecahydro-1H-cyclopenta[a]chrysen-9-yl)benzoic acid]	< 100 nM
C=C(C)[C@@H]1CC[C@]2(C(=O)NCCCN(CCC(=O)O)CCC(=O)O)CC[C@]3(C)[C@H](CC[C@@H]4[C@@]5(C)CC=C(c6ccc(C(=O)O)cc6)C(C)(C)[C@@H]5CC[C@]43C)[C@@H]12 [Example 100, 3,3′-(3-((1R,3aS,5aR,5bR,7aR,11aS,11bR,13aR,13bR)-9-(4-carboxyphenyl)-5a,5b,8,8,11a-pentamethyl-1-(prop-1-en-2-yl)-2,3,3a,4,5,5a,5b,6,7,7a,8,11,11a,11b,12,13,13a,13b-octadecahydro-1H-cyclopenta[a]chrysene-3a-carboxamido)propylazanediyl)dipropanoic acid]	> 100 nM
C=C(C)[C@@H]1CC[C@]2(C(=O)NCCOC)CC[C@]3(C)[C@H](CC[C@@H]4[C@@]5(C)CC=C(c6ccc(C(=O)O)cc6)C(C)(C)[C@@H]5CC[C@]43C)[C@@H]12 [Example 69, 4-((1R,3aS,5aR,5bR,7aR,11aS,11bR,13aR,13bR)-3a-(2-methoxyethylcarbamoyl)-5a,5b,8,8,11a-pentamethyl-1-(prop-1-en-2-yl)-2,3,3a,4,5,5a,5b,6,7,7a,8,11,11a,11b,12,13,13a,13b-octadecahydro-1H-cyclopenta[a]chrysen-9-yl)benzoic acid]	< 100 nM
C=C(C)[C@@H]1CC[C@]2(C(=O)N(C)CCO)CC[C@]3(C)[C@H](CC[C@@H]4[C@@]5(C)CC=C(c6ccc(C(=O)O)cc6)C(C)(C)[C@@H]5CC[C@]43C)[C@@H]12 [Example 23, 4-((1R,3aS,5aR,5bR,7aR,11aS,11bR,13aR,13bR)-3a-((2-hydroxyethyl)(methyl)carbamoyl)-5a,5b,8,8,11a-pentamethyl-1-(prop-1-en-2-yl)-2,3,3a,4,5,5a,5b,6,7,7a,8,11,11a,11b,12,13,13a,13b-octadecahydro-1H-cyclopenta[a]chrysen-9-yl)benzoic acid]	< 100 nM
C=C(C)[C@@H]1CC[C@]2(C(=O)NCCN3CCC(F)(F)CC3)CC[C@]3(C)[C@H](CC[C@@H]4[C@@]5(C)CC=C(c6ccc(C(=O)O)cc6F)C(C)(C)[C@@H]5CC[C@]43C)[C@@H]12 [Example 119, 4-((1R,3aS,5aR,5bR,7aR,11aS,11bR,13aR,13bR)-3a-(2-(4,4-difluoropiperidin-1-yl)ethylcarbamoyl)-5a,5b,8,8,11a-pentamethyl-1-(prop-1-en-2-yl)-2,3,3a,4,5,5a,5b,6,7,7a,8,11,11a,11b,12,13,13a,13b-octadecahydro-1H-cyclopenta[a]chrysen-9-yl)-3-fluorobenzoic acid]	< 100 nM
CC(C)[C@@H]1CC[C@]2(C(=O)NCCC(=O)O)CC[C@]3(C)[C@H](CC[C@@H]4[C@@]5(C)CC[C@H](c6ccc(C(=O)O)cc6)C(C)(C)[C@@H]5CC[C@]43C)[C@@H]12 [Example 124, 4-((1S,3aS,5aR,5bR,7aS,9S,11aS,11bR,13aR,13bR)-3a-(2-carboxyethylcarbamoyl)-1-isopropyl-5a,5b,8,8,11a-pentamethylicosahydro-1H-cyclopenta[a]chrysen-9-yl)benzoic acid]	< 100 nM
C=C(C)[C@@H]1CC[C@]2(C(=O)NCCCN3CCS(=O)(=O)CC3)CC[C@]3(C)[C@H](CC[C@@H]4[C@@]5(C)CC=C(c6ccc(C(=O)O)c(C(=O)O)c6)C(C)(C)[C@@H]5CC[C@]43C)[C@@H]12 [Example 112, 4-((1R,3aS,5aR,5bR,7aR,11aS,11bR,13aR,13bR)-3a-((3-(1,1-dioxido-4-thiomorpholinyl)propyl)carbamoyl)-1-isopropenyl-5a,5b,8,8,11a-pentamethyl-2,3,3a,4,5,5a,5b,6,7,7a,8,11,11a,11b,12,13,13a,13b-octadecahydro-1H-cyclopenta[a]chrysen-9-yl)phthalic acid]	< 100 nM
C=C(C)[C@@H]1CC[C@]2(C(=O)NCCN(C)C)CC[C@]3(C)[C@H](CC[C@@H]4[C@@]5(C)CC=C(c6ccc(C(=O)O)c(C(=O)O)c6)C(C)(C)[C@@H]5CC[C@]43C)[C@@H]12 [Example 113, 4-((1R,3aS,5aR,5bR,7aR,11aS,11bR,13aR,13bR)-3a-(2-(dimethylamino)ethylcarbamoyl)-5a,5b,8,8,11a-pentamethyl-1-(prop-1-en-2-yl)-2,3,3a,4,5,5a,5b,6,7,7a,8,11,11a,11b,12,13,13a,13b-octadecahydro-1H-cyclopenta[a]chrysen-9-yl)phthalic acid]	> 100 nM
C=C(C)[C@@H]1CC[C@]2(C(=O)NCc3ccc(OC)cc3)CC[C@]3(C)[C@H](CC[C@@H]4[C@@]5(C)CC=C(c6ccc(C(=O)O)cc6)C(C)(C)[C@@H]5CC[C@]43C)[C@@H]12 [Example 15, 4-((1R,3aS,5aR,5bR,7aR,11aS,11bR,13aR,13bR)-3a-(4-methoxybenzylcarbamoyl)-5a,5b,8,8,11a-pentamethyl-1-(prop-1-en-2-yl)-2,3,3a,4,5,5a,5b,6,7,7a,8,11,11a,11b,12,13,13a,13b-octadecahydro-1H-cyclopenta[a]chrysen-9-yl)benzoic acid]	< 100 nM
C=C(C)[C@@H]1CC[C@]2(C(=O)NCCCN3CCS(=O)(=O)CC3)CC[C@]3(C)[C@H](CC[C@@H]4[C@@]5(C)CC=C(c6ccc(C(=O)O)c(F)c6)C(C)(C)[C@@H]5CC[C@]43C)[C@@H]12 [Example 105, 4-((1R,3aS,5aR,5bR,7aR,11aS,11bR,13aR,13bR)-3a-((3-(1,1-dioxido-4-thiomorpholinyl)propyl)carbamoyl)-1-isopropenyl-5a,5b,8,8,11a-pentamethyl-2,3,3a,4,5,5a,5b,6,7,7a,8,11,11a,11b,12,13,13a,13b-octadecahydro-1H-cyclopenta[a]chrysen-9-yl)-2-fluorobenzoic acid]	< 100 nM
